Data on seven molecules can be found in patent US4062964A, “Antifertility-combinations” (Ciba-Geigy Corporation, priority 1976, dated 1977).

The test system of one assay is pregnant hamsters. The experiment in a line: Antifertility ED50 in pregnant hamsters. Format: in vivo, hamster. The following applies: for ED50: Mesocricetus auratus. On the procedure:
(§1) Said compositions are administered to pregnant Lakeview hamsters arriving at day 1 postcoitus, which are maintained in a day-night reversed room (11 A.M. to 11 P.M.). Food and water is given ad libitum. Six hamsters per group are used (3 per cage) and each test is carried out with a control group receiving said excipients only. The orally administered AGT is given for 3 consecutive days starting on day 3 postcoitus, at a rate of 5 ml/kg body weight, and these animals are sacrificed on day 10 to 12 postcoitus. The subcutaneously administered TPF is given once on day 5 postcoitus only, at a volume of 0.2 ml per animal, and these animals are sacrificed on day 8 postcoitus. The uterus of each animal is inspected and implantation sites are counted and recorded according to viable or resorbed fetuses. Percent inhibition is determined by comparison of treated groups over the control group.

The test system of a further assay is rabbits. The experiment in a line: Activity of TPF in rabbits. The following applies: rabbit, in vivo.
Another assay deals with rats. Kind of assay: Activity of TPF in rats. The conditions noted are these: rat, in vivo.
In assay [1] the test system is pregnant Lakeview hamsters. Kind of assay: Antifertility effect (percent of litter living) in pregnant hamsters, AGT p.o. and TPF s.c. Format: in vivo, hamster. Here is the method:
Said active ingredients are administered in admixture with the following excipients:
AGT + 3% corn starch + 5% polyethylene glycol 400 + 1 drop of polysorbate 80 per 10 ml of distilled water.
TPF 10 mg per 0.1 ml of ethanol, which solution is diluted with the buffer prepared from 19 ml of 0.2M aqueous monosodium phosphate and 81 ml of 0.2M aqueous disodium phosphate, corrected with the latter to the pH = 7.4.
as §1

The subject of assay [2] is conversion of cholesterol to pregnenolone. The following applies: background; cited from earlier work.
The subject of another assay is progesterone secretion. The conditions noted are these: pregnant and non-pregnant animals and human beings, background; cited from earlier work.
The subject of assay [3] is pregnant rats. Kind of assay: Abortifacient activity of AGP in pregnant rats (3 doses on day 9; large single or daily oral doses). Format: in vivo, rat. On the procedure: (§2) The efficacy of the compositions according to the invention is demonstrable in animal tests, using advantageously mammals, such as rats, hamsters or baboons, as test objects. Thus, for example, adult female rats weighing 190-250 grams are housed in a "reverse room" as described in Contraception 3, 347 (1971), with the exception that the animals have 14 hours of light between 5 P.M. and 7 A.M., and 10 hours of darkness from 7 A.M. to 5 P.M. They are placed with adult male rats from 10 A.M. to 2 P.M. (i.e. "their midnight" ± 2 hours) following which vaginal smears are obtained.
(§3) Said antifertility compounds may be administered orally, e.g. in suspension with the excipient compraising 3% (by weight) of carboxymethylcellulose, 1.05% methylcellulose, 0.8% sodium chloride, 0.1% polysorbate 80 and 0.002% thimerosal in water, as a single dose on day 5 of pregnancy (i.e. the day after implantation unless otherwise specified). Prostaglandins may be injected subcutaneously twice (9 A.M. and 3 P.M.) on days 4-7 in a conventional 0.1M phosphate buffer at pH = 7.45. Aminoglutethimide phosphate can also be administered in aqueous solution orally, subcutaneously, intraperitoneally or intravenously. The rats are sacrificed on day 10 or 11 of pregnancy and the uterus is examined for living and dead fetuses and implantation sites. The terms "abortion" and "resorption" are used interchangeably because by day 10 or 11 the uterine scars resulting from either event are indistinguishable by gross inspection.

The subject of another assay is progesterone levels. The experiment in a line: Progesterone levels in rats after aminoglutethimide phosphate. Format: in vivo, rat. The conditions noted are these: large single or daily oral doses.
For assay [4], the system named is pregnant rats. Kind of assay: Combined treatment AGP and PGF2α, resorption of fetuses in pregnant rats. Type of assay: in vivo, rat. Here is the method:
as §2, §3

Assay [5] deals with pregnant rats. The experiment in a line: Resorption of embryos by s.c. prostaglandins in pregnant rats. Format: in vivo, rat. The conditions noted are these: for Fetuses / Resorptions / Total Implants: days 4-7. On the procedure: as §2, §3
However, when the compounds were injected twice daily (9 a.m. and 3 p.m.) in adequate doses on days 4-7 of gestation, implantation occured at the normal time but this was then followed by resorption of the embryos. […]

Where [6] appears, read: 100 mg/kg × 3 on day 9, i.p., 10 rats.
Setting [7] is: 100 mg/kg × 3 on day 9, i.v., 3 rats.
The mark [8] stands for this setting: 100 mg/kg × 3 on day 9, p.o., 5 rats.
The mark [9] stands for this setting: sc, pregnant hamsters, approximative, read-out: ED50 s.c. for antifertility effects.

Where two headings read alike, the source gives them in different places.

In the case of `O=C(O)CCCCCCC1OCC(O)C1/C=C/C(O)COc1cccc(C(F)(F)F)c1` (stereo not drawn) [TPF, 7-[3α-(3β-hydroxy-4-(m-trifluoromethylphenoxy)-1-trans-butenyl)-4β-hydroxy-tetrahydro-2β-furyl]-heptanoic acid], the “oral potency relative to PGF2α” value with pregnant hamsters (oral, more potent than PGF2α) is 10-20 times. Moreover, the oral antifertility effectiveness result in the assay on pregnant hamsters (oral, pregnant hamsters) is listed as “orally effective”. Besides, the “ED50 oral for antifertility effects” value in the assay on pregnant hamsters (oral, pregnant hamsters, approximative) is given as 0.31 mg/kg. Also, the “ED50 s.c. for antifertility effects” value in the assay on pregnant hamsters (s.c., pregnant hamsters, approximative) is 0.1 mg/kg. In the assay with rabbits, the activity in rabbits entry is “active in rats and rabbits”. Moreover, the activity in rats result in the assay on rats is on record as “active in rats”. For the same molecule, in assay [1] (25 μg/animal/s.c.), the “effective as antifertility agent” value is given as 64%. Moreover, the “PERCENT OF LITTER LIVING” value in [1] (TPF 5 μg s.c. day 5, AGT 0 mg) was found to be 98%; in assay [1] (TPF 10 μg s.c. day 5, AGT 0 mg), 70%; in assay [1] (TPF 25 μg s.c. day 5, AGT 0 mg) it was 36%.

With `CCC1(c2ccc(N)cc2)CCC(=O)NC1=O` (stereo not shown) [aminoglutethimide], the “conversion of cholesterol to pregnenolone in the steroid pathway” value in assay [2] is “blocks the conversion of cholesterol to pregnenolone”. Moreover, the progesterone secretion result in the assay on progesterone secretion is given as “inhibits progesterone secretion”.

For the molecule `CC[C@]1(c2ccc(N)cc2)CCC(=O)NC1=O.CC[C@]1(c2ccc(N)cc2)CCC(=O)NC1=O.O.O=C(O)C(O)C(O)C(=O)O.O=C(O)C(O)C(O)C(=O)O` [AGT, d-aminoglutethimide d-tartrate hemihydrate], the “effective as antifertility agent” value in assay [1] (500 mg/kg/p.o.) stood at 100%. Also, the “PERCENT OF LITTER LIVING” value in [1] (AGT 100 mg/kg p.o. day 3-5, TPF 0) is 90%; in assay [1] (AGT 250 mg/kg p.o. day 3-5, TPF 0), 68%; in assay [1] (AGT 500 mg/kg p.o. day 3-5, TPF 0), 0%.

Consider `CCC1(c2ccc(N)cc2)CCC(=O)NC1=O` (stereo not shown) [AGP, aminoglutethimide phosphate], for which the Fetuses with pregnant rats [3] (setting [6]) was determined as 4.4 ± 2.2; in the assay on pregnant rats [3] (setting [7]) it was 4.3 ± 4.3; with pregnant rats [3] (setting [8]) it was 13.8 ± 0.9; in the assay on pregnant rats [4] (AGP 30 mg/kg s.c., days 3-5) it was 12.2 ± 1.8. Also, the Resorptions in the assay on pregnant rats [3] (setting [6]) was 8.9 ± 2.0; with pregnant rats [3] (setting [7]), 10.3 ± 4.7; with pregnant rats [3] (setting [8]) it was 0.4 ± 0.4; in the assay on pregnant rats [4] (AGP 30 mg/kg s.c., days 3-5) it was 1.6 ± 1.1. Further, the “Total Implants” value stood at 13.3 ± 0.6 in the assay on pregnant rats [3] (setting [6]); 14.7 ± 0.7 in the assay with pregnant rats [3] (setting [7]); 14.2 ± 0.7 in the assay with pregnant rats [3] (setting [8]); 13.8 ± 1.0 in the assay with pregnant rats [4] (AGP 30 mg/kg s.c., days 3-5). Also, the “abortifacient on day 9” value in the assay on pregnant rats [3] (given every 8 hours, i.v. versus p.o., rats) is given as “abortifacient on day 9 when given every 8 hours i.v., but not p.o”. Moreover, the abortifacient activity result in the assay with pregnant rats [3] (large single or daily oral doses, rats) is on record as “very resistant to the abortifacient activity”. The “decrease of progesterone levels” value in the assay on progesterone levels is “more than 70%”. In addition, the “resorption of fetuses in rats” value with pregnant rats [4] (AGP 30 mg/kg s.c. days 3-5 of pregnancy) is given as “did not induce resorption of fetuses”.

As for `CCCCC[C@H](O)/C=C/[C@H]1[C@H](O)CC(=O)[C@@H]1C/C=C\CCCC(=O)O` [PGE2], the ED50 (as a rule, the dose that gives a 50% effect, or the effect in half of the subjects) with pregnant hamsters (setting [9]) amounted to 2 mg/kg. Further, in the assay with pregnant rats [5] (200 μg/rat s.c. × 2 daily), the Fetuses is given as 10.6 ± 2.8, the Resorptions was found to be 0 and the “Total Implants” value is recorded as 10.6 ± 2.8. Further, in the assay with pregnant rats [5] (400 μg/rat s.c. × 2 daily), the Fetuses turned out to be 6.6 ± 2.8, the Resorptions is reported as 0 and the “Total Implants” value was found to be 6.6 ± 2.8. In addition, in the assay with pregnant rats [5] (800 μg/rat s.c. × 2 daily), the Fetuses is reported as 0, the Resorptions amounted to 5.6 ± 2.6 and the “Total Implants” value worked out at 5.6 ± 2.6.

Regarding `CCCCC[C@H](O)/C=C/[C@H]1[C@H](O)CC(=O)[C@@H]1CCCCCCC(=O)O` [PGE1], in the assay with pregnant rats [5] (200 μg/rat s.c. × 2 daily), the Fetuses was found to be 10.8 ± 2.7, the Resorptions was determined as 0 and the “Total Implants” value stood at 10.8 ± 2.7. In the assay with pregnant rats [5] (400 μg/rat s.c. × 2 daily), the Fetuses was 10.6 ± 2.7, the Resorptions came out at 0 and the “Total Implants” value was 10.6 ± 2.7. Besides, in the assay on pregnant rats [5] (800 μg/rat s.c. × 2 daily), the Fetuses is reported as 0, the Resorptions is 7.0 ± 1.9 and the “Total Implants” value was 7.0 ± 1.9.

Regarding `CCCCC[C@H](O)/C=C/[C@@H]1[C@@H](C/C=C\CCCC(=O)O)[C@@H](O)C[C@H]1O` [PGF2α, prostaglandin F2α], the ED50 in the assay on pregnant hamsters (setting [9]) is 0.1 mg/kg; in the assay on pregnant hamsters (oral, pregnant hamsters, approximative, read-out: ED50 oral for antifertility effects) it was 7.5 mg/kg. Further, the Fetuses is listed as 14.2 ± 0.7 in the assay on pregnant rats [5] (100 μg/rat s.c. × 2 daily); 14.4 ± 0.2 in the assay with pregnant rats [5] (200 μg/rat s.c. × 2 daily); 0 in the assay on pregnant rats [5] (400 μg/rat s.c. × 2 daily); 15.4 ± 0.6 in the assay on pregnant rats [4] (PGF2α 1 mg/kg s.c., day 5). Also, the Resorptions with pregnant rats [5] (100 μg/rat s.c. × 2 daily) is 0; in the assay with pregnant rats [5] (200 μg/rat s.c. × 2 daily), 0.2 ± 0.2; in the assay with pregnant rats [5] (400 μg/rat s.c. × 2 daily), 9.6 ± 2.6; in the assay with pregnant rats [4] (PGF2α 1 mg/kg s.c., day 5) it was 0. Also, the “Total Implants” value in the assay on pregnant rats [5] (100 μg/rat s.c. × 2 daily) is given as 14.2 ± 0.7; with pregnant rats [5] (200 μg/rat s.c. × 2 daily), 14.6 ± 0.2; with pregnant rats [5] (400 μg/rat s.c. × 2 daily), 9.6 ± 2.6; in the assay with pregnant rats [4] (PGF2α 1 mg/kg s.c., day 5) it was 15.4 ± 0.6. The “relative activity versus PGE1 and PGE2” value in the assay on pregnant rats [5] (s.c. twice daily, days 4-7, rats) is “about twice as active as PGE1 and PGE2”. The “resorption of fetuses in rats” value with pregnant rats [4] (PGF2α 1 mg/kg s.c. on day 5 of pregnancy) is “did not induce resorption of fetuses”.
